The NIST ThermoML archive (doi:10.1021/je025651k)
± gives the expanded uncertainty stated by the source.

Assays:
[1] = refractive index (Na D-line) (dimensionless); details: 298.15 K, 101.33 kPa, Liquid
[2] = Liquid; for mass density: 298.15 K, 101.33 kPa

CCC(O)CC [3-pentanol]
Details	mass density [kg/m3]	refractive index	vapor or sublimation pressure [kPa]
[1], Abbe refractometer	–	1.4087	–
[2], 293.8 K	–	–	0.84 ± 0.5
[2], 300.8 K	–	–	1.33 ± 0.5
[2], 308 K	–	–	2.11 ± 0.51
[2], 315.4 K	–	–	3.35 ± 0.51
[2], 323 K	–	–	5.31 ± 0.52
[2], 331.1 K	–	–	8.41 ± 0.54
[2], 339.8 K	–	–	13.33 ± 0.56
[2], 349.3 K	–	–	21.13 ± 0.6
[2], 359.4 K	–	–	33.49 ± 0.66
[2], 370.5 K	–	–	53.08 ± 0.76
[2], 382.9 K	–	–	84.13 ± 0.91
[2], 388.38 K	–	–	101.32 ± 1
[2], 388.7 K	–	–	101.32 ± 1
[2], vibrating tube	815.5	–	–

CCCC(C)=O [pentan-2-one]
Details	mass density [kg/m3]	refractive index	vapor or sublimation pressure [kPa]
[1], Abbe refractometer	–	1.3881	–
[2], 329.8 K	–	–	20.44 ± 0.6
[2], 336.3 K	–	–	26.55 ± 0.63
[2], 342.1 K	–	–	33.04 ± 0.66
[2], 347.2 K	–	–	39.99 ± 0.69
[2], 351.5 K	–	–	46.57 ± 0.73
[2], 355.5 K	–	–	53.47 ± 0.76
[2], 358.9 K	–	–	59.95 ± 0.79
[2], 362 K	–	–	66.61 ± 0.83
[2], 365 K	–	–	73.28 ± 0.86
[2], 367.7 K	–	–	79.91 ± 0.89
[2], 370.3 K	–	–	86.76 ± 0.93
[2], 372.6 K	–	–	93.11 ± 0.96
[2], 375 K	–	–	100.06 ± 1
[2], 375.09 K	–	–	101.32 ± 1
[2], 377.2 K	–	–	106.83 ± 1
[2], 379.3 K	–	–	113.61 ± 1.1
[2], 381.2 K	–	–	120.11 ± 1.1
[2], 383 K	–	–	126.54 ± 1.1
[2], 384.8 K	–	–	133.92 ± 1.2
[2], vibrating tube	801.47	–	–

CCC(=O)CC [pentan-3-one]
Details	mass density [kg/m3]	refractive index	vapor or sublimation pressure [kPa]
[1], Standard Abbe refractometry	–	1.39 ± 0.0006	–
[2], 290 K	–	–	3.42 ± 0.51
[2], 309.9 K	–	–	9.21 ± 0.54
[2], 320 K	–	–	14.22 ± 0.57
[2], 330.6 K	–	–	22.33 ± 0.61
[2], 341.4 K	–	–	33.64 ± 0.66
[2], 350.4 K	–	–	46.5 ± 0.73
[2], 361.3 K	–	–	66.6 ± 0.83
[2], 367.5 K	–	–	82.09 ± 0.9
[2], 371 K	–	–	90.18 ± 0.95
[2], 371.5 K	–	–	91.82 ± 0.95
[2], 374.75 K	–	–	101.32 ± 1
[2], 375.2 K	–	–	102.52 ± 1
[2], Vibrating tube method	809.43 ± 0.11	–	–
